# Test results reported in patent US11053204B2, “Pyrimidinyloxy benzene derivatives as herbicides” (FMC Corporation, priority 2015, dated 2021).
# Tests used:
# Type in all cases: in vivo
# [1] = test system: crabgrass, large (large crabgrass, Digitaria sanguinalis); test: Test C preemergence, plant response rating; conditions: Preemergence
# Outline: (§1)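 After sowing in loam–sand blend or silt loam, pots were sprayed preemergence; separately grown 1- to 4-leaf plants were sprayed postemergence. Following 13 to 15 d under greenhouse conditions, injury was rated visually on a 0 to 100 scale.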
# [2] = test system: waterhemp (common waterhemp, Amaranthus rudis); test: Test C preemergence, plant response rating; conditions: Preemergence
# Outline: as §1
# [3] = test system: velvetleaf (Abutilon theophrasti); test: Test C preemergence, plant response rating; conditions: Preemergence
# Outline: as §1
# [4] = test system: blackgrass (Alopecurus myosuroides); test: Test C preemergence, plant response rating; conditions: Preemergence
# Outline: as §1
# [5] = test system: ragweed (common ragweed, Ambrosia elatior); test: Test C preemergence, plant response rating; conditions: Preemergence
# Outline: as §1
# soybean (Glycine max) = test: Test C preemergence, plant response rating; conditions: Preemergence
# Outline: as §1
# [6] = test system: lambsquarters (Chenopodium album); test: Test C preemergence, plant response rating; conditions: Preemergence
# Outline: as §1
# [7] = test system: ryegrass, Italian (Italian ryegrass, Lolium multiflorum); test: Test C preemergence, plant response rating; conditions: Preemergence
# Outline: as §1
# [8] = test system: wheat (winter wheat, Triticum aestivum); test: Test C preemergence, plant response rating; conditions: Preemergence
# Outline: as §1
# [9] = test system: oilseed rape (Brassica napus); test: Test C preemergence, plant response rating; conditions: Preemergence
# Outline: as §1
# [10] = test system: morningglory (Ipomoea coccinea); test: Test C preemergence, plant response rating; conditions: Preemergence
# Outline: as §1
# [11] = test system: foxtail, giant (giant foxtail, Setaria faberii); test: Test C preemergence, plant response rating; conditions: Preemergence
# Outline: as §1
# corn (Zea mays) = test: Test C preemergence, plant response rating; conditions: Preemergence
# Outline: as §1
# [12] = test system: nutsedge, yellow (yellow nutsedge, Cyperus esculentus); test: Test C preemergence, plant response rating; conditions: Preemergence
# Outline: as §1
# [13] = test system: Italian ryegrass (Lolium multiflorum); test: Test A preemergence, visual injury rating
# Outline: (§2)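 Visual 0–100 rating (100 = complete control) taken about 10 d post-treatment relative to untreated checks. Preemergence: directed soil spray on sown loam/sand pots. Postemergence: seedlings 2–10 cm, 1–2 leaf. Non-phytotoxic solvent formulation with surfactant.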
# [14] = test system: giant foxtail (Setaria faberii); test: Test A preemergence, visual injury rating
# Outline: as §2
# [15] = test system: ragweed (common ragweed, Ambrosia elatior); test: Test A preemergence, visual injury rating
# Outline: as §2
# [16] = test system: barnyardgrass (Echinochloa crus-galli); test: Test A preemergence, visual injury rating
# Outline: as §2
# [17] = 31 g ai/ha, 0 to 100 scale, 0 no effect, 100 complete control
# [18] = 125 g ai/ha, 0 to 100 scale (0 no effect, 100 complete control)
structure (smiles),measurement,setting,value
O=C(CCCCC(F)(F)F)c1c(Br)cccc1Oc1ncc(Cl)cn1 [Compound 82],"Plant response rating, Crabgrass, Large","[1]; 125 g ai/ha, scale of 0 to 100",98
same,"Plant response rating, Crabgrass, Large","[1]; 16 g ai/ha, scale 0 to 100",60
same,"Plant response rating, Crabgrass, Large","[1]; 31 g ai/ha, scale 0 to 100",70
same,"Plant response rating, Crabgrass, Large","[1]; 62 g ai/ha, scale 0 to 100",90
same,"Plant response rating, Waterhemp","[2]; 125 g ai/ha, scale of 0 to 100",100
same,"Plant response rating, Waterhemp","[2]; 31 g ai/ha, scale 0 to 100",50
same,"Plant response rating, Waterhemp","[2]; 62 g ai/ha, scale 0 to 100",100
same,"Plant response rating, Velvetleaf","[3]; 125 g ai/ha, scale of 0 to 100",10
same,"Plant response rating, Velvetleaf","[3]; 31 g ai/ha, scale 0 to 100",0
same,"Plant response rating, Velvetleaf","[3]; 62 g ai/ha, scale 0 to 100",0
same,"Plant response rating, Blackgrass","[4]; 125 g ai/ha, scale of 0 to 100",5
same,"Plant response rating, Blackgrass","[4]; 16 g ai/ha, scale 0 to 100",0
same,"Plant response rating, Blackgrass","[4]; 31 g ai/ha, scale 0 to 100",0
same,"Plant response rating, Blackgrass","[4]; 62 g ai/ha, scale 0 to 100",5
same,"Plant response rating, Ragweed","[5]; 125 g ai/ha, scale of 0 to 100",30
same,"Plant response rating, Ragweed","[5]; 31 g ai/ha, scale 0 to 100",0
same,"Plant response rating, Ragweed","[5]; 62 g ai/ha, scale 0 to 100",20
same,"Plant response rating, Soybean","soybean (Glycine max); 125 g ai/ha, scale of 0 to 100",0
same,"Plant response rating, Soybean","soybean (Glycine max); 31 g ai/ha, scale 0 to 100",0
same,"Plant response rating, Soybean","soybean (Glycine max); 62 g ai/ha, scale 0 to 100",0
same,"Plant response rating, Lambsquarters","[6]; 125 g ai/ha, scale of 0 to 100",70
same,"Plant response rating, Lambsquarters","[6]; 31 g ai/ha, scale 0 to 100",20
same,"Plant response rating, Lambsquarters","[6]; 62 g ai/ha, scale 0 to 100",20
same,"Plant response rating, Ryegrass, Italian","[7]; 125 g ai/ha, scale of 0 to 100",5
same,"Plant response rating, Ryegrass, Italian","[7]; 31 g ai/ha, scale 0 to 100",0
same,"Plant response rating, Ryegrass, Italian","[7]; 62 g ai/ha, scale 0 to 100",5
same,"Plant response rating, Wheat","[8]; 125 g ai/ha, scale of 0 to 100",0
same,"Plant response rating, Wheat","[8]; 31 g ai/ha, scale 0 to 100",0
same,"Plant response rating, Wheat","[8]; 62 g ai/ha, scale 0 to 100",0
same,"Plant response rating, Oilseed Rape","[9]; 125 g ai/ha, scale of 0 to 100",50
same,"Plant response rating, Oilseed Rape","[9]; 31 g ai/ha, scale 0 to 100",0
same,"Plant response rating, Oilseed Rape","[9]; 62 g ai/ha, scale 0 to 100",5
same,"Plant response rating, Morningglory","[10]; 125 g ai/ha, scale of 0 to 100",10
same,"Plant response rating, Morningglory","[10]; 31 g ai/ha, scale 0 to 100",0
same,"Plant response rating, Morningglory","[10]; 62 g ai/ha, scale 0 to 100",0
same,"Plant response rating, Foxtail, Giant","[11]; 125 g ai/ha, scale of 0 to 100",98
same,"Plant response rating, Foxtail, Giant","[11]; 31 g ai/ha, scale 0 to 100",80
same,"Plant response rating, Foxtail, Giant","[11]; 62 g ai/ha, scale 0 to 100",90
same,"Plant response rating, Corn","corn (Zea mays); 125 g ai/ha, scale of 0 to 100",5
same,"Plant response rating, Corn","corn (Zea mays); 16 g ai/ha, scale 0 to 100",0
same,"Plant response rating, Corn","corn (Zea mays); 31 g ai/ha, scale 0 to 100",0
same,"Plant response rating, Corn","corn (Zea mays); 62 g ai/ha, scale 0 to 100",0
same,"Plant response rating, Nutsedge, Yellow","[12]; 125 g ai/ha, scale of 0 to 100",0
same,"Plant response rating, Nutsedge, Yellow","[12]; 31 g ai/ha, scale 0 to 100",0
same,"Plant response rating, Nutsedge, Yellow","[12]; 62 g ai/ha, scale 0 to 100",0
same,"Plant response rating, Ryegrass, Italian",[13]; [17],0
same,"Ryegrass, Italian plant response rating",[13]; [18],80
same,"Plant response rating, Foxtail, Giant",[14]; [17],90
same,"Foxtail, Giant plant response rating",[14]; [18],100
same,"Plant response rating, Ragweed",[15]; [17],0
same,Ragweed plant response rating,[15]; [18],60
same,"Plant response rating, Barnyardgrass",[16]; [17],50
same,Barnyardgrass plant response rating,[16]; [18],100
